Values of other authors, collected in patent publication US20070003642A1 (priority 2002, published 2007).

| solubility of isoflavones itself (stated as natural solubility, given as explanation) | Compound | solubility of daidzin (background statement) |
| --- | --- | --- |
| about 5 mg/L | isoflavones |  |
|  | O=c1c(-c2ccc(O)cc2)coc2cc(O[C@@H]3O[C@H](CO)[C@@H](O)[C@H](O)[C@H]3O)ccc12 [daidzin] | about 3.3 mg/100 ml |
